In brackets after ≈: the same amount, converted by molar mass. Where two headings read alike, the source gives them in different places.

This note sets out measurements from patent publication US20030207813A1, “Retroviral protease inhibitor combinations” (priority 1995, published 2003).

For this assay, the system named is HIV-1RF. Description: CEM-T4 cell infection assay, reverse transcriptase readout, isolate RF. It counts as cell-based. Conditions: Human immunodeficiency virus 1, CEM-T4, 168 h, 7 days, read-out: Virus Isolate (EC50 ng/mL) RF. From the text:
RF represents the HIV-1 strain HIV-LRF and RFR represents a mixture of resistant strains obtained by selection of RF against the compound of Example 1. RFR comprises a mixture of viral strains having protease genotypes of G48V (14/40 clones); G48V, V82A (18/40 clones); G48V, L90S (2/40 clones); G48V, 154T, V82A (1/40 clones); G48M (1/40 clones); G48V, Q61H (1/40 clones); V13I, G48V (1/40 clones); G48V, F53L, V82A (1/40 clones); and G48V, V82A, C95Y (1/40 clones). RFR2 represents a mixture of resistant strains obtained by cloning RFR by three rounds of growth at limiting dilution. RFR2 comprises a mixture of viral strains having protease genotypes of G48V, V82A (13/15 clones); G17E, G48V, V82A (1/15 clones); and G48V, V82A, N37D, N88D (1/15 clones). RFRR represents a mixture of resistant strains obtained by selection of RF against the compounds of Examples 1 and 2 and then cloning by three rounds of growth at limiting dilution. RFRR comprises a mixture of viral strains having protease genotypes of G48V, 154T, L63P, V82A (7/9 clones); G48V, 154T, L63P, V82A, N88S (1/9 clones); and G48V, 154T, L63P, G73M, V82A (1/9 clones). SF162 represents the HIV-1 strain SF-162 and SF162R represents a mixture of resistant strains obtained by selection of SF162 against the compound of Example 1. SF162R comprises a mixture of viral strains having protease genotypes of M461, F53L, L63P, A71V, N88D (2/3 clones); and M46I, F53L, L63P, A71V, N88D, Q92R (1/3 clones). 89-959 represents the HIV-1 strain 89-959 and 89-959R represents a mixture of resistant strains obtained by selection of 89-959 against the compound of Example 2. 89-959R comprises a mixture of viral strains having protease genotypes of N88S (4/5 clones); and D25N, T26A, D30N, D37N, R41K, G73D, R87K, N88S (1/4 clones). NL4 represents the HIV-1 strain HIV-1NL4-3. NL4(G48V) represents a strain having a synthetically generated site-directed mutation in the protease from glycine to valine at amino acid position number 48. NL4(I84V) represents a strain having a synthetically generated site-directed mutation in the protease from isoleucine to valine at amino acid position number 84. NL4(R8Q,M46I) represents a strain having synthetically generated site-directed mutations in the protease from arginine to glutamine at amino acid position number 8 and methionine to isoleucine at amino acid position number 46. NL4(P22-538) represents a mixture of resistant strains obtained by selection of HIV-1NL4-3 against the compound of Example 10 after 22 passages comprising protease genotypes M46I, L63P, A71V, V82F, I84V (4/10); M46I, L63P, V82F, I84V (3/10); and M46I, A71V, V82F, I84V (3/10). NL4(P37-538) represents resistant strains obtained by selection of HIV-1NL4-3 against the compound of Example 10 after 37 passages comprising protease genotype M46I, L63P, A71V, 184A. NL4(538/524) represents resistant strains obtained by selection of NL4(P22-538) against the compound of Example 5 after 24 passages comprising protease genotype M46I, L63P, A71V, 184A. NL4(538/P7-AG) represents a mixture of resistant strains obtained by selection of NL4(P22-538) against the compound of Example 12 after 7 passages comprising protease genotypes M46I, L63P, A71V, 184A; and V321, V82I. NL4(538/P24-AG) represents resistant strains obtained by selection of NL4(P22-538) against the compound of Example 12 after 24 passages comprising protease genotype M46I, L63P, A71V, 184A. NLA(P19-003) represents resistant strains obtained by selection of HIV-1^NL4-3 against the compound of Example 9 after 19 passages comprising protease genotype R8K, M46I. NL4(P34-003) represents resistant strains obtained by selection of HIV-1^NL4-3 against the compound of Example 9 after 34 passages comprising protease genotype R8K, M46I, L63P, A71V, L90M.
The viral isolate resistance results summarized in Tables 4-6 were generated according to the following assay procedure or minor modifications thereof. Assays are performed in 96-well tissue culture plates. […]

With `CC(C)CN(C[C@@H](O)[C@H](Cc1ccccc1)NC(=O)[C@H](CC(N)=O)NC(=O)c1ccc2ccccc2n1)S(=O)(=O)NC(C)(C)C` [Example 8, N-[3-[N^2-[N^1-(1,1-dimethylethyl)aminosulfonyl]-N^2-(2-methylpropyl)amino]-2R-hydroxy-1S-(phenylmethyl)propyl]-2S-[(2-quinolinylcarbonyl)amino]butanediamide], the EC50 (Table 5, CEM-T4 cells) worked out at 2 ng/mL (≈ 0.00312 µM). Take `CNCC(=O)N[C@H](C(=O)N[C@@H](Cc1ccccc1)[C@H](O)CN(CCC(C)C)C(=O)NC(C)(C)C)C(C)(C)C` [Example 2, (2R,3S)-3-(N-methylaminoacetyl-L-tert-butylglycinyl)amino-1-(N-isoamyl-N-(tert-butylcarbamoyl))amino-4-phenyl-2-butanol]: the EC50 reads like this: (Table 4, CEM-T4 cells) 40 ng/mL (≈ 0.0749 µM); (Table 6, CEM-T4 cells) 35 ng/mL (≈ 0.0656 µM). Turning to `CC(C)(C)NC(=O)[C@@H]1CC2CCCC[C@@H]2CN1C[C@@H](O)[C@H](Cc1ccccc1)NC(=O)[C@H](CC(N)=O)NC(=O)c1ccc2ccccc2n1` (stereo in doubt) [Example 6, N-tert-Butyl decahydro-2-[2(R)-hydroxy-4-phenyl-3(S)-[[N-(2-quinolylcarbonyl)-L-asparaginyl]amino]butyl]-(4aR,8aS)-isoquinoline-3(S)-carboxamide], the EC50 came out at 12 ng/mL (≈ 0.0179 µM) (Table 4, CEM-T4 cells) and 6 ng/mL (≈ 0.00894 µM) (Table 6, CEM-T4 cells). For the compound `CC(C)CN(C[C@@H](O)[C@H](Cc1ccccc1)NC(=O)[C@H](CC(N)=O)NC(=O)c1ccc2ccccc2n1)C(=O)NC(C)(C)C` (relative stereo) [Example 1, [1S-[1R*(R*),2S*]]-N^1-[3-[[[(1,1-dimethylethyl)amino]carbonyl])2-methylpropyl)amino]-2-hydroxy-1-(phenylmethyl)propyl]-2-[(2-quinolinylcarbonyl)amino]-butanediamide], the EC50 was determined as 30 ng/mL (≈ 0.0496 µM) (Table 4, CEM-T4 cells); 24 ng/mL (≈ 0.0397 µM) (Table 5, CEM-T4 cells); 19 ng/mL (≈ 0.0314 µM) (Table 6, CEM-T4 cells). In the case of `CC(C)CCN(C[C@@H](O)[C@H](Cc1ccccc1)NC(=O)[C@H](CC(N)=O)NC(=O)c1ccc2ccccc2n1)C(=O)NC(C)(C)C` (relative stereo) [Example 7, [1S-[1R*(R*),2S*]]-N^1-[3-[[[(1,1-dimethylethyl)amino]carbonyl](3-methylbutyl)amino]-2-hydroxy-1-(phenylmethyl)propyl]-2-[(2-quinolinylcarbonyl)amino]-butanediamide], under “Table 5, CEM-T4 cells”, the EC50 turned out to be 2 ng/mL (≈ 0.00323 µM). Turning to `CC(C)(C)NC(=O)[C@@H]1CN(Cc2cccnc2)CCN1C[C@@H](O)C[C@@H](Cc1ccccc1)C(=O)N[C@H]1c2ccccc2C[C@H]1O` [Example 5, N-(2(R)-Hydroxy-1(S)-indanyl)-2(R)-phenylmethyl-4(S)-hydroxy-5-(1-(4-(3-pyridylmethyl)-2(S)-N′-(t-butylcarboxamido)-piperazinyl))-pentaneamide], the EC50 runs as follows: (Table 4, CEM-T4 cells) 44 ng/mL (≈ 0.0717 µM); (Table 6, CEM-T4 cells) 6 ng/mL (≈ 0.00978 µM).
